Consider 4 compounds from ChEMBL document CHEMBL3392978 (Eur J Med Chem, 2015).

Molecules are shown by their SMILES.

The subject of data set [1] is HepG2. Kind of data set: Growth inhibition of human HepG2 cells at 10 uM after 72 hrs by MTT assay. It is filed as functional. As to conditions: HepG2, 72 h, read-out: GI.
The test system of data set [2] is MDA-MB-453. In words: Growth inhibition of human MDA-MB-453 cells at 10 uM after 72 hrs by MTT assay. It counts as functional. The settings on record: MDA-MB-453, 72 h, read-out: GI.
The subject of data set [3] is SW480. In words: Growth inhibition of human SW480 cells at 10 uM after 72 hrs by MTT assay. It counts as functional. The settings on record: SW480, 72 h, read-out: GI.
The subject of data set [4] is A-375. Kind of data set: Growth inhibition of human A375 cells at 10 uM after 72 hrs by MTT assay. It counts as functional. The settings on record: A-375, 72 h, read-out: GI.
Data set [5] relates to NCI-H522. In words: Growth inhibition of human NCI-H522 cells at 10 uM after 72 hrs by MTT assay. It counts as functional. As to conditions: NCI-H522, 72 h, read-out: GI.
For data set [6], the system named is MCF7. In words: Growth inhibition of human MCF7 cells at 10 uM after 72 hrs by MTT assay. The settings on record: MCF7, 72 h, read-out: GI. It counts as functional. (Tetrazolium dyes change colour on reduction, which living cells bring about.)
The test system of data set [7] is HepG2. In words: Cytotoxicity against human HepG2 cells assessed as reduction in cell viability after 72 hrs by MTT assay. It is filed as functional, cell-based. As to conditions: HepG2, 72 h.
For data set [8], the system named is A-375. In words: Cytotoxicity against human A375 cells assessed as reduction in cell viability after 72 hrs by MTT assay. As to conditions: A-375, 72 h. It counts as functional, cell-based.
Data set [9] deals with NCI-H522. Kind of data set: Cytotoxicity against human NCI-H522 cells assessed as reduction in cell viability after 72 hrs by MTT assay. It counts as functional, cell-based. The settings on record: NCI-H522, 72 h.
Data set [10] relates to A-375. In words: Antitumor activity against human A375 cells xenografted in nude Ncr mouse assessed as reduction in tumor growth at 50 mg/kg, ig dosed once daily for 23 days. It is filed as functional. The settings on record: A-375, po, 552 h, route intragastric, read-out: TGI. In general terms: Xenograft models place foreign cells or tissue in a host animal.
For data set [11], the system named is MDA-MB-453. In words: Cytotoxicity against human MDA-MB-453 cells assessed as reduction in cell viability after 72 hrs by MTT assay. It counts as functional, cell-based. The settings on record: MDA-MB-453, 72 h.
The subject of data set [12] is MCF7. In words: Cytotoxicity against human MCF7 cells assessed as reduction in cell viability after 72 hrs by MTT assay. It counts as functional, cell-based. As to conditions: MCF7, 72 h.
The target of data set [13] is Serine/threonine-protein kinase B-raf (Homo sapiens, UniProt P15056). Kind of data set: Inhibition of BRAF (unknown origin) incubated for 15 mins by fluorescence based assay.
Data set [14] has as its target Vascular endothelial growth factor receptor 2 (Homo sapiens, UniProt P35968). In words: Inhibition of human recombinant VEGFR2 incubated for 1 hr using [gamma-32P]ATP by top count assay.
The test system of data set [15] is Mus musculus. Kind of data set: Toxicity in human A375 cells xenografted nude Ncr mouse assessed as body weight changes at 50 mg/kg, ig dosed once daily for 23 days. It is filed as organism-based, A-375. Also noted: dose 50 mg/kg, route intragastric. The settings on record: in vivo, po, 552 h.
Data set [16] deals with Mus musculus. Kind of data set: Toxicity in human A375 cells xenografted nude Ncr mouse assessed as induction of adverse events at 50 mg/kg, ig dosed once daily for 23 days. Also noted: dose 50 mg/kg, route intragastric. It counts as organism-based, A-375. As to conditions: in vivo, po, 552 h.
Data set [17] concerns SW480. Kind of data set: Cytotoxicity against human SW480 cells assessed as reduction in cell viability after 72 hrs by MTT assay. It counts as functional, cell-based. As to conditions: SW480, 72 h.

Sequence of Serine/threonine-protein kinase B-raf (P15056 whole entry): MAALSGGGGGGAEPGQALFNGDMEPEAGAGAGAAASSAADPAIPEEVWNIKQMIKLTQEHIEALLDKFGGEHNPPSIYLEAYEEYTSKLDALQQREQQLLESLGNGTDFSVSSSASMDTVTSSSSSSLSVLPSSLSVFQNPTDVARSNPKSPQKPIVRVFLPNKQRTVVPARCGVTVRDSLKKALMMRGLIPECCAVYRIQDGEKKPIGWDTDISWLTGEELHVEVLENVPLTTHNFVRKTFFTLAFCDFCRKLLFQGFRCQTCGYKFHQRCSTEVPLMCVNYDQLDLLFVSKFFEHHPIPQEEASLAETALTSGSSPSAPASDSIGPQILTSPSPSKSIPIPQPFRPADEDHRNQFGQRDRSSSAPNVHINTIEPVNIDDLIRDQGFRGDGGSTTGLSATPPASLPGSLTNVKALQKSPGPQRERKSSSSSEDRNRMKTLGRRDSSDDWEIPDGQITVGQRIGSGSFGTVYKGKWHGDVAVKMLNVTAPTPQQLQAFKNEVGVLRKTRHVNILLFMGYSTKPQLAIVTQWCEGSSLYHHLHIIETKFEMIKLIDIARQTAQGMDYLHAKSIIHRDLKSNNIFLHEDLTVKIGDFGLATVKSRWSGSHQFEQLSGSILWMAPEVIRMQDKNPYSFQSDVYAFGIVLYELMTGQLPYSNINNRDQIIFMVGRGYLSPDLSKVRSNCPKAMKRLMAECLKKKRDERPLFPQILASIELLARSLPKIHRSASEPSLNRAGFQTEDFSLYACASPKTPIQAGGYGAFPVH
Sequence of Vascular endothelial growth factor receptor 2 (P35968 whole entry): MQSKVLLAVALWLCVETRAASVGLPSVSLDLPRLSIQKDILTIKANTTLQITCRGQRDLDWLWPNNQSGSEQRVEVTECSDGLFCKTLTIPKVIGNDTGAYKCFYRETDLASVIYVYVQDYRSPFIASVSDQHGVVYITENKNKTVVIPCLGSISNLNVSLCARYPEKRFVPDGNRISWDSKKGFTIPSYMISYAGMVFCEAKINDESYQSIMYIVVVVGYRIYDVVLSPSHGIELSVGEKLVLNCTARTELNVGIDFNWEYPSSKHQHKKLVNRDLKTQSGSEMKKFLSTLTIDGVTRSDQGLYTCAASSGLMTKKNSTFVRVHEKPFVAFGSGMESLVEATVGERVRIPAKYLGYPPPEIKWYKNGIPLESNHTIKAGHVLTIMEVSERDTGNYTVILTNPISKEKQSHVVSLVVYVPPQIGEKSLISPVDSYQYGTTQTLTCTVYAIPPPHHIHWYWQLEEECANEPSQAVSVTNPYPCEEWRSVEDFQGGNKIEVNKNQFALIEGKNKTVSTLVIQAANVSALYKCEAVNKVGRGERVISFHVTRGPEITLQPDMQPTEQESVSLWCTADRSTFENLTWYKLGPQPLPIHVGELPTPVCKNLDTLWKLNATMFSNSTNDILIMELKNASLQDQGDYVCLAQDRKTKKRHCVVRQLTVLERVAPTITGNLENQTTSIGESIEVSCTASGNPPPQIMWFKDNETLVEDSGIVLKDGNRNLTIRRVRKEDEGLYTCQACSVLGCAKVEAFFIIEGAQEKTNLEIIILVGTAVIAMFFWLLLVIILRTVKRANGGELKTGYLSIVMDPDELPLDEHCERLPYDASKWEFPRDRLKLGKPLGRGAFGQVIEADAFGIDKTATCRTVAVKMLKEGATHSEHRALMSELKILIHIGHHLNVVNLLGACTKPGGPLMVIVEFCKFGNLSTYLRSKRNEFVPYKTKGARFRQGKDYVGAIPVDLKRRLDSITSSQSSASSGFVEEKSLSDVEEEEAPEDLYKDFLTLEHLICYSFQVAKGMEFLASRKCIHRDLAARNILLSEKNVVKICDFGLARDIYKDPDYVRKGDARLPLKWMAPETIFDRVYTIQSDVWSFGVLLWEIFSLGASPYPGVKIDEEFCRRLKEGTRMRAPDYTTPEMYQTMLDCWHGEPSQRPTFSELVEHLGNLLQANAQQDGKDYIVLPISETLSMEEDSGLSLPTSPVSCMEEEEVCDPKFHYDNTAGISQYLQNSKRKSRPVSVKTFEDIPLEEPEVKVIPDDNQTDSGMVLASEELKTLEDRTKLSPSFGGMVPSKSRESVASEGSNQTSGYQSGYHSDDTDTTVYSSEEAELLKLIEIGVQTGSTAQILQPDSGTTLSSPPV

Broadly, the IC50 is the point on the concentration scale where inhibition reaches its midpoint. For `CNC(=O)c1cc(Oc2ccc(NC(=O)Nc3ccc(Cl)c(C(F)(F)F)c3)cc2)ccn1` [SORAFENIB], the inhibition of growth at 10 µM in the data set with HepG2 [1] is 59.9%; in the data set on MDA-MB-453 [2], 36.9%; in the data set on SW480 [3] it was 28.1%; with A-375 [4], 44.1%; in the data set on NCI-H522 [5], 39.4%; with MCF7 [6], 23%. The IC50 in the data set on HepG2 [7] amounted to 5.74 µM; in the data set on A-375 [8], 16.2 µM; in the data set on NCI-H522 [9], 19.3 µM. Moreover, the inhibition in vivo at 50 mg/kg in the data set with A-375 [10] was 76.6%.

In the case of `O=C(Nc1ccc(Cl)c(C(=O)Nc2ccc(-c3ncc[nH]3)nc2)c1)c1ccc(Cl)c(C(F)(F)F)c1`, the inhibition of growth at 10 µM is 54.2% in the data set on HepG2 [1]; 49.3% with MDA-MB-453 [2]; 38.8% in the data set with SW480 [3]; 62.6% in the data set on A-375 [4]; -3.2% with NCI-H522 [5]; 41.5% in the data set on MCF7 [6]. The IC50 with HepG2 [7] is 13.8 µM; in the data set with MDA-MB-453 [11] it was 8.35 µM; in the data set with A-375 [8], 4.26 µM; with MCF7 [12] it was 15.3 µM; in [13] it was 0.65 µM; in data set [14] it was 18.6 µM. Further, in the data set on A-375 [10], the inhibition in vivo at 50 mg/kg came out at 35.7%. The Activity result in the data set with Mus musculus [15] and with Mus musculus [16] was “Non-toxic” throughout.

As for `O=C(Nc1ccc(Cl)c(C(F)(F)F)c1)c1ccc(Cl)c(C(=O)Nc2ccc(-c3ncc[nH]3)nc2)c1`, the inhibition of growth at 10 µM worked out at 63.4% in the data set on HepG2 [1]; 52.9% in the data set on MDA-MB-453 [2]; 33.4% with SW480 [3]; 64.4% in the data set with A-375 [4]; 0.2% in the data set on NCI-H522 [5]; 31.3% in the data set on MCF7 [6]. Also, the IC50 in the data set with HepG2 [7] stood at 3.21 µM; in the data set with MDA-MB-453 [11], 7.96 µM; in the data set on A-375 [8], 2.93 µM; in data set [13], 0.531 µM; in data set [14] it was 23.4 µM. For the same compound, the inhibition in vivo at 50 mg/kg in the data set on A-375 [10] turned out to be 42.5%. Moreover, the Activity result with Mus musculus [15] and in the data set with Mus musculus [16] was “Non-toxic” in each case.

As for `Cc1cc(C(=O)Nc2ccc(Cl)c(C(=O)Nc3ccc(-c4ncc[nH]4)nc3)c2)ccc1Cl`, the inhibition of growth at 10 µM in the data set with HepG2 [1] is 52.8%; in the data set on MDA-MB-453 [2], 51.1%; with SW480 [3] it was 65.7%; with A-375 [4] it was 43.9%; in the data set on NCI-H522 [5] it was 66.7%; with MCF7 [6], 43.7%. Moreover, the IC50 with HepG2 [7] was 11.5 µM; in the data set with MDA-MB-453 [11], 8.76 µM; in the data set with SW480 [17], 3.57 µM; with A-375 [8], 12.6 µM; with NCI-H522 [9], 2.09 µM; in the data set with MCF7 [12] it was 16.3 µM.
